Where a name gives a salt, the structure may show the parent alone.
Test system: jejunum
Assay: Transcriptional profiling on Affymetrix GeneChips, single dose, naïve mice: jejunum
Type: in vivo, C57BL/6 mice
Procedure: Treated mice were sacrificed at 2, 7, or 12 hours. Tissues (liver, spleen, kidney, jejunum, cortex, hippocampus, striatum and whole blood) were collected and analyzed by transcriptional profiling on mouse Affymetrix GeneChips.
Tissues (liver, spleen, kidney, jejunum, cortex, hippocampus, striatum and whole blood) were collected and analyzed by transcriptional profiling on mouse Affymetrix GeneChips.
Animals were exposed to CO2 and whole blood collected via cardiac puncture. Two 100 μl aliquots of whole blood were collected in 1.5 mL microcentrifuge tubes and snap frozen in liquid nitrogen. Peripheral (liver, spleen, kidney and jejunum) and CNS brain (cerebellum, hippocampus, striatum and cortex) tissues were harvested and snap frozen in liquid nitrogen, with special care taken to collect tissues of similar size and from the same location. All samples were stored at −80° C. until RNA extraction was conducted.
For RNA preparation, frozen tissues were placed in 2 mL RNAse-free 96-well blocks with 1.5 mL QIAzol Lysis Reagent (QIAgen) and a 3.2 mm stainless steel bead (BioSpec Products, Bartlesville, Okla.). Tissues were disrupted for four cycles of 45 seconds in a Mini-Beadbeater (Biospec Products). RNA was extracted in chloroform and the aqueous phase was mixed with an equal volume of 70% ethanol. Extracted RNA was applied to RNeasy 96 plates and purified by the spin method according to the manufacturer's protocol (RNeasy 96 Universal Tissue Protocol, QIAgen, Hilden Germany).
Automated sample amplifications and biotin labelings were carried out using the NuGEN Ovation RNA Amplification system V2 (Cat #3100), Ovation WB reagent (Cat #1300) and Encore Biotin module (Cat #4200) (NuGEN Technologies, Inc, San Carlos, Calif.) according to manufacturer's recommendations using an Arrayplex automated liquid handler (Beckman Coulter, Indianapolis, Ind.). Two micrograms of biotin labeled sscDNA probe were hybridized to Affymetrix GeneChip Affymetrix HT_MG-430_PM plate arrays with modified conditions as described in Allaire et al. Washing and staining of the hybridized arrays were completed as described in the GeneChip Expression analysis technical manual for HT plate arrays using the Genechip® Array Station (Affymetrix, Santa Clara, Calif.) with modifications as described in Allaire et al. The processed GeneChip® plate arrays were scanned using GeneTitan scanner (Affymetrix, Santa Clara, Calif.).
Affymetrix scans were subject to quality control (QC) measures. These tests included a visual inspection of the distribution of raw signal intensities and an assessment of RNA degradation, relative log expression (RLE), and normalized unsealed standard error (NUSE). All sample scans that passed these QC metrics were included in the analysis.
All CEL files were subjected to GC-content-based Robust Multi-array Average (GCRMA) normalization (version 2.20.0) (Irizarry R A, et al. Nucleic Acids Res 2003; 31:e15; Li C, et al. Genome Biol 2001; 2:[…]0032). Expression levels were log (base 2) transformed.
All calculations and analyses were carried out using R (version 2.11.1) and Bioconductor computational tools (Gentleman R. Springer Science+Business Media 2005).

[1] = 100DMF-vs-Veh or 100MMF-vs-Veh, 12 h

COC(=O)/C=C/C(=O)OC [DMF, dimethyl fumarate]
FC Lrp8 (1440882_PM_at) (100DMF-vs-100MMF, 2 h): −1.69
FC Alb (1425260_PM_at) (100DMF-vs-100MMF, 7 h): 9.97
FC G6pc (1417880_PM_at) (100DMF-vs-100MMF, 7 h): −2.45
FC Abcc3 (1428988_PM_at) [1]: 2.02
FC Acsm5 (1437662_PM_at) [1]: 1.86
FC Akr1b8 (1448894_PM_at) [1]: 17.57
FC Akr1c12 (1450455_PM_s_at) [1]: 1.72
FC Akr1c19 (1455454_PM_at) [1]: 3.20
FC Blvrb (1451386_PM_at) [1]: 1.53
FC Cbr3 (1427912_PM_at) [1]: 25.95
FC Ces1e (1419510_PM_at) [1]: 2.70
FC Ces1f (1424266_PM_s_at) [1]: 6.17
FC Ces1g (1449486_PM_at) [1]: 7.40
FC G6pd2 (1422327_PM_s_at) [1]: 1.74
FC Gpx2 (1449279_PM_at) [1]: 1.67
FC Gsr (1421816_PM_at) [1]: 2.20
FC Gss (1441931_PM_x_at) [1]: 1.53
FC Gsta2 (1421040_PM_a_at) [1]: 5.65
FC Gsta2 (1421041_PM_s_at) [1]: 2.04
FC Gsta3 (1423436_PM_at) [1]: 10.36
FC Gsta3 (1423437_PM_at) [1]: 7.86
FC Gstm1 (1425627_PM_x_at) [1]: 4.63
FC Gstm1 (1448330_PM_at) [1]: 4.15
FC Gstm3 (1427473_PM_at) [1]: 2.03
FC Gstm3 (1427474_PM_s_at) [1]: 1.57
FC Gstm4 (1424835_PM_at) [1]: 5.03
FC Gstm6 (1422072_PM_a_at) [1]: 1.95
FC Nqo1 (1423627_PM_at) [1]: 2.30
FC Pir (1429001_PM_at) [1]: 3.79
FC Setd4 (1425239_PM_at) [1]: 1.66
FC Setd4 (1460373_PM_a_at) [1]: 1.52
FC Slc5a4b (1422757_PM_at) [1]: 2.21
FC Ugt2b5 (1419622_PM_at) [1]: 4.92
FC Ugt2b35 (1439624_PM_at) [1]: 2.37
FC Ugt2b36 (1455595_PM_at) [1]: 2.94
Number of genes, DMF Only / MMF Only (Jejunum): 9
Akr1c13 (1418672_PM_at) differential expression (Jejunum, 2 hr): 1.62
Areg (1421134_PM_at) differential expression (Jejunum, 2 hr): 3.58
B3galt5 (1428397_PM_at) differential expression (Jejunum, 2 hr): −2.77
Cbr1 (1460196_PM_at) differential expression (Jejunum, 2 hr): 1.55
Ces1e (1419510_PM_at) differential expression (Jejunum, 2 hr): 1.85
Dnase2a (1430135_PM_at) differential expression (Jejunum, 2 hr): 1.77
Dppa5a (1416552_PM_at) differential expression (Jejunum, 2 hr): 3.07
Dusp4 (1428834_PM_at) differential expression (Jejunum, 2 hr): 1.51
Entpd5 (1433763_PM_at) differential expression (Jejunum, 2 hr): 1.53
Ereg (1419431_PM_at) differential expression (Jejunum, 2 hr): 2.50
Ero1l (1419030_PM_at) differential expression (Jejunum, 2 hr): 1.92
Esd (1441604_PM_at) differential expression (Jejunum, 2 hr): 1.71
Fam13a (1456611_PM_at) differential expression (Jejunum, 2 hr): 1.54
Gclc (1424296_PM_at) differential expression (Jejunum, 2 hr): 4.25
Gsr (1421816_PM_at) differential expression (Jejunum, 2 hr): 2.23
Gss (1441931_PM_x_at) differential expression (Jejunum, 2 hr): 1.95
Gsta3 (1423436_PM_at) differential expression (Jejunum, 2 hr): 4.03
Gsta4 (1416368_PM_at) differential expression (Jejunum, 2 hr): 1.72
Gstm1 (1416416_PM_x_at) differential expression (Jejunum, 2 hr): 2.30
Mafg (1448916_PM_at) differential expression (Jejunum, 2 hr): 2.20
Nos2 (1420393_PM_at) differential expression (Jejunum, 2 hr): −2.39
Nqo1 (1423627_PM_at) differential expression (Jejunum, 2 hr): 2.16
Osgin1 (1424022_PM_at) differential expression (Jejunum, 2 hr): 2.08
Pgm2 (1437240_PM_at) differential expression (Jejunum, 2 hr): 2.15
Prss8 (1418320_PM_at) differential expression (Jejunum, 2 hr): 2.60
Ptk6 (1442923_PM_at) differential expression (Jejunum, 2 hr): −2.42
Setd4 (1435405_PM_at) differential expression (Jejunum, 2 hr): 1.91
Slc35e3 (1428805_PM_at) differential expression (Jejunum, 2 hr): 1.53
Slc40a1 (1417061_PM_at) differential expression (Jejunum, 2 hr): 2.33
Srr (1453421_PM_at) differential expression (Jejunum, 2 hr): 1.99
Srxn1 (1425351_PM_at) differential expression (Jejunum, 2 hr): 1.71
Tifa (1426501_PM_a_at) differential expression (Jejunum, 2 hr): −2.43
Tox3 (1436600_PM_at) differential expression (Jejunum, 2 hr): 1.70
Tsku (1440230_PM_at) differential expression (Jejunum, 2 hr): 1.61
Ugt2b5 (1419622_PM_at) differential expression (Jejunum, 2 hr): 3.40
Ugt2b36 (1455595_PM_at) differential expression (Jejunum, 2 hr): 2.07
Unc5c1 (1429950_PM_at) differential expression (Jejunum, 2 hr): −1.53
Abcc3 (1428988_PM_at) differential expression (Jejunum, 7 hr): 1.88
Acsm5 (1437662_PM_at) differential expression (Jejunum, 7 hr): 1.60
Akr1c13 (1418672_PM_at) differential expression (Jejunum, 7 hr): 1.61
Cbr1 (1460196_PM_at) differential expression (Jejunum, 7 hr): 1.65
Ces1e (1419510_PM_at) differential expression (Jejunum, 7 hr): 2.10
Ddc (1426215_PM_at) differential expression (Jejunum, 7 hr): 1.74
G6pd2 /// G6pdx (1422327_PM_s_at) differential expression (Jejunum, 7 hr): 1.82
G6pdx (1448354_PM_at) differential expression (Jejunum, 7 hr): 1.54
Gclc (1424296_PM_at) differential expression (Jejunum, 7 hr): 2.06
Gm3776 /// Gsta1 /// Gsta2 (1421041_PM_s_at) differential expression (Jejunum, 7 hr): 1.72
Gsr (1421816_PM_at) differential expression (Jejunum, 7 hr): 2.83
Gss (1441931_PM_x_at) differential expression (Jejunum, 7 hr): 1.97
Gsta3 (1423436_PM_at) differential expression (Jejunum, 7 hr): 4.27
Gsta4 (1416368_PM_at) differential expression (Jejunum, 7 hr): 2.09
Gstm1 (1416416_PM_x_at) differential expression (Jejunum, 7 hr): 3.19
Gstm2 (1416411_PM_at) differential expression (Jejunum, 7 hr): 1.58
Gstm4 (1424835_PM_at) differential expression (Jejunum, 7 hr): 3.83
Gstm6 (1422072_PM_a_at) differential expression (Jejunum, 7 hr): 1.94
Htatip2 (1451814_PM_a_at) differential expression (Jejunum, 7 hr): 1.51
Nqo1 (1423627_PM_at) differential expression (Jejunum, 7 hr): 2.31
Pir (1429001_PM_at) differential expression (Jejunum, 7 hr): 3.79
Setd4 (1435405_PM_at) differential expression (Jejunum, 7 hr): 1.90
Slc5a4b (1422757_PM_at) differential expression (Jejunum, 7 hr): 1.67
Txnrd1 (1424487_PM_x_at) differential expression (Jejunum, 7 hr): 1.60
Ugt2b5 (1419622_PM_at) differential expression (Jejunum, 7 hr): 3.42
Ugt2b36 (1455595_PM_at) differential expression (Jejunum, 7 hr): 2.23
Abcc3 (1428988_PM_at) differential expression (Jejunum, 12 hr): 2.02
Acsm5 (1437662_PM_at) differential expression (Jejunum, 12 hr): 1.86
Akr1c12 /// Akr1c13 (1450455_PM_s_at) differential expression (Jejunum, 12 hr): 1.72
Aldh1a7 (1418601_PM_at) differential expression (Jejunum, 12 hr): 1.65
Blvrb (1451386_PM_at) differential expression (Jejunum, 12 hr): 1.53
Ces1e (1419510_PM_at) differential expression (Jejunum, 12 hr): 2.70
G6pd2 /// G6pdx (1422327_PM_s_at) differential expression (Jejunum, 12 hr): 1.74
Gm3776 /// Gsta1 /// Gsta2 (1421041_PM_s_at) differential expression (Jejunum, 12 hr): 2.04
Gpx2 (1449279_PM_at) differential expression (Jejunum, 12 hr): 1.67
Gsr (1421816_PM_at) differential expression (Jejunum, 12 hr): 2.20
Gss (1441931_PM_x_at) differential expression (Jejunum, 12 hr): 1.53
Gsta3 (1423436_PM_at) differential expression (Jejunum, 12 hr): 10.36
Gsta4 (1416368_PM_at) differential expression (Jejunum, 12 hr): 2.58
Gstm1 (1416416_PM_x_at) differential expression (Jejunum, 12 hr): 4.15
Gstm2 (1416411_PM_at) differential expression (Jejunum, 12 hr): 2.04
Gstm4 (1424835_PM_at) differential expression (Jejunum, 12 hr): 5.03
Gstm6 (1422072_PM_a_at) differential expression (Jejunum, 12 hr): 1.95
Nqo1 (1423627_PM_at) differential expression (Jejunum, 12 hr): 2.30

Reference: patent US20160115540A1, “PRODRUGS AND DRUGS” (Biogen MA Inc., priority 2013, published 2016)
